This is an account of results in PubChem BioAssay AID624285 (Broad Institute, 2012).

Activity calls are given as the source filed them.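 The calls were made as follows: active = signal-decreasing dose-response curve whose fitted half-maximal concentration is at or below twice the highest valid tested dose; inconclusive = flat fit at 30 to 70% signal loss, or poor fit; inactive = the rest.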

Tested on in one experiment: not listed separately
In words: cytotoxicity in mammalian cells, dose response, cytotoxicity control for PDI inhibitor project, cell-based, 24 h, luminescence, cherry-picked samples (AID 624285). The following applies: NIH3T3/HeLa viability, CellTiter-Glo ATP luminescence, 24 h; at 35 µM (top of the series). On the technique in general: In ATP-based viability assays light output follows the ATP content of the culture.
Consider `CC[C@]12c3[nH]c4cc(-c5ccco5)ccc4c3CCN1C(=O)[C@@H](CC(=O)NCCCOC)C[C@@H]2C(=O)N1CCN(C(=O)C2CC2)CC1`, for which the activity change, negative = cytotoxicity was -8.63% (inactive).

Turning to `C[C@@H]1O[C@@H](Oc2c(-c3cc(O)c(O)c(O)c3)oc3cc(O)cc(O)c3c2=O)[C@H](O)[C@H](O)[C@H]1O`, the activity change, negative = cytotoxicity is -5.81% (inactive).

Consider `C[C@@H]1O[C@@H](O[C@H]2[C@H](O)[C@@H](O)[C@H](Oc3c(-c4ccc(O)cc4)oc4cc(O)cc(O)c4c3=O)O[C@@H]2CO)[C@H](O)[C@H](O)[C@H]1O`, for which the activity change, negative = cytotoxicity is -3.49% (inactive).

Regarding `O=C(CN1C(=O)NC2(CCCC2)C1=O)Nc1ccc(C(F)(F)F)cc1`, the activity change, negative = cytotoxicity was -9.2% (inactive).

For the compound `Cc1nc(C(=O)Nc2cccc(Cl)c2Cl)nn1-c1cc(OC(C)C)c(Cl)cc1Cl`, the activity change, negative = cytotoxicity was -11.1% (inactive).

Regarding `CN(C)S(=O)(=O)c1ccc(Cl)c(NC(=O)CSc2nnnn2-c2ccc(O)cc2)c1`, the activity change, negative = cytotoxicity was -11.7% (inactive).

As to `COc1ccc(C2c3ccc(O)cc3Oc3ncn(Cc4ccco4)c(=N)c32)cc1OC` (stereo not drawn), the activity change, negative = cytotoxicity was -14.4% (inactive).

Turning to `COC(=O)c1ccc(COC(=O)CSCC(=O)Nc2ccc(C)cc2C)cc1`, the activity change, negative = cytotoxicity was -2.15% (inactive).

For `O=C(OCc1ccc(-c2ccccc2)cc1)c1cccc(O)c1`, the activity change, negative = cytotoxicity is -8.38% (inactive).

As for `CC1(C(=O)Nc2ccc3c(c2)OCCO3)CCN1C(=O)C1(c2ccc(Cl)cc2)CC1` (stereo not drawn), the activity change, negative = cytotoxicity was -11.6% (inactive).

As to `O=C(c1ccco1)N1CCN(Cc2cc(=O)oc3cc(O)ccc23)CC1`, the activity change, negative = cytotoxicity is -18% (inactive).

On to `C[C@H]1CN([C@@H](C)CO)C(=O)c2cccc(NS(C)(=O)=O)c2O[C@H]1CN(C)Cc1ccc(Oc2ccccc2)cc1`, for which the activity change, negative = cytotoxicity was -4.63% (inactive).

The subject of the next experiment is NIH3T3/HeLa viability, CellTiter-Glo ATP luminescence, 24 h. The experiment is described as above.
Conditions: not given
As to `NC(Cc1ccc(C(F)(F)F)cc1)c1csc(Nc2ccc(C(=O)NCCCO)cn2)n1` (stereo not drawn), the AC50 is 35.1 µM.

As for `CCN1CCN(Cc2ccc(NC(=O)c3cc(NC(=O)c4cc(-c5ccc(OC)cc5)n[nH]4)cc(OC)c3)cc2C(F)(F)F)CC1`, the AC50 is 6.45 µM.

With `O=C1N[C@@H](Cc2c[nH]c3ccccc23)COC(=O)[C@@H](Cc2ccc(F)cc2)C/C=C\C[C@H]1CC(=O)N(CCO)Cc1ccccc1`, the AC50 is 30.2 µM.

On to `CCOC(=O)c1c(CN2CCN(C)CC2)n(-c2ccccc2)c2cc(Br)c(O)cc12`, for which the AC50 was 23.9 µM.

For `COc1c(Br)cc(C(N)=O)cc1OCc1ccccc1`, the AC50 was > 70 µM (inactive).

As to `COc1ccc(C[C@@H]2OC3(C=CC(=O)C=C3)O[C@H]2Cc2ccc(OC)cc2)cc1`, the AC50 is 1.69 µM.

For the compound `O=C(Nc1nccs1)c1ccc(-c2ccccc2[N+](=O)[O-])o1`, the AC50 was > 70 µM (inactive).

In the case of `Cc1ccc(S(=O)(=O)N(C)c2ccc(OC(=O)COc3ccccc3)cc2)cc1`, the AC50 was > 70 µM (inactive).

As to `CCOC(=O)C1(CCOc2ccccc2)CCN(Cc2ccccc2O)CC1`, the AC50 is > 70 µM (inactive).

Turning to `O=C(CCC1CCCCC1)NCCN1C2=NC[C@H](Cc3ccc(O)cc3)N2C[C@H]1Cc1ccc(O)cc1`, the AC50 was > 70 µM (inactive).

Consider `CCOC(=O)Oc1c(OC)cc(C(=O)O[C@@H]2C[C@@H]3CN4CCc5c([nH]c6cc(OC)ccc56)[C@H]4C[C@@H]3[C@H](C(=O)OC)[C@H]2OC)cc1OC`, for which the AC50 is 27.3 µM.

Turning to `CN1CCN(Cc2nc3ccccc3c(=O)n2Cc2nc(-c3ccc4ccccc4c3)cs2)CC1`, the AC50 is 7.27 µM.

Take `Cc1ccc(C)c(N2CCN(S(=O)(=O)c3ccc4c(c3)OCCO4)CC2)c1`: the AC50 is > 70 µM (inactive).

With `CCOC(=O)c1c(CN(C)C)n(-c2ccc(C)cc2)c2cc(Br)c(O)cc12`, the AC50 was > 70 µM (inactive).

Consider `COc1ccc(/C=C/C(=O)c2cc(F)ccc2OC(=O)c2ccccc2OC)cc1OC`, for which the AC50 was 23.5 µM.

Regarding `C[C@@H]1CN([C@H](C)CO)C(=O)c2cccc(NS(C)(=O)=O)c2O[C@H]1CN(C)Cc1ccc(Oc2ccccc2)cc1`, the AC50 was > 70 µM (inactive).

What is called AC50 is the midpoint of the concentration-response curve, whichever way the signal moves.
